2 compounds from patent publication US20250345299A1, “COMBINATION AND COMPOSITION COMPRISING NICOTINIC ACID OR DERIVATIVE THEREOF AND FATTY ACID OR DERIVATIVE THEREOF” (T OMEGA AS, priority 2022, published 2025) can be followed below.

What all share (assay type): in vivo, male Wistar rats, Rattus norvegicus
Assay [1] can be described thus: Analysis of plasma compounds in rats fed high-fat diet supplemented with TTA, NR, NAR or combinations. Details: Quinolinic acid / Nicotinamide / N1-Methylnicotinamide / Pyridoxal 5′-phosphate / Pyridoxal / Thiamine monophosphate: unit not given here. As to conditions: high-fat diet + supplement, 12 weeks. Here is the method:
This example illustrates an animal study using male Wistar rats which were fed NR, NAR, TTA and combinations thereof.
(§1) The animal study was conducted according to the Guidelines for the Care and Use of Experimental Animals, and in accordance with the Norwegian legislation and regulations governing experiments using live animals. All efforts were made to optimize the animal environment and minimize suffering. Eight weeks-old old male Wistar rats, Rattus norvegicus, weighing 400-450 g, were purchased from Taconic (Ejby, Denmark). Upon arrival the rats were randomized using Research Randomizer, labeled and placed in open cages, two in each cage, where they were allowed to acclimatize to their surroundings for one week. During the acclimatization and experiment period, the rats had unrestricted access to tap water, but restricted access to chow to obtain a constant dose through the experiment.
(§2) The rats were kept in a 12 hours light/dark cycle at a constant temperature (22±2° C.) and a relative humidity of 55% (±5%). Upon start of the experiment, the rats were block randomized to their respective interventions. All rats were divided into seven groups. The first group of animals (control group) was fed a high-fat diet (HF) with 25% by weight fat, consisting of 23% by weight lard and 2% by weight soybean oil, referred to as “HF”. The second group was fed a high-fat diet (HF) supplemented with tetradecylthioacetic acid (TTA) (250 mg/day/kg body weight), referred to as “HF+TTA”. The third group was fed a high-fat diet (HF) supplemented with nicotineamide riboside (NR) (100 mg/day/kg body weight), referred to as “HF+NR”. The fourth group was fed a high-fat diet (HF) supplemented with nicotinic acid riboside (NAR) (40 mg/day/kg body weight), referred to as “HF+NAR”. The fifth group was fed a high-fat diet (HF) supplemented with both tetradecylthioacetic acid (TTA) (250 mg/day/kg body weight) and nicotineamide riboside (NR) (100 mg/day/kg body weight), referred to as “HF+TTA+NR”. The sixth group was fed a high-fed diet (HF) supplemented with both tetradecylthioacetic acid (TTA) (250 mg/day/kg body weight) and nicotinic acid riboside (NAR) (40 mg/day/kg body weight), referred to as “HF+TTA+NAR”. The seventh group was fed a low-fed diet, referred to as “LF”.
(§3) All animals were weighed daily and feed intake was determined weekly. The animal experiment was run for 12 weeks. At sacrifice, rats were anaesthetized by inhalation of 2-5% isoflurane (Schering-Plough, Kent, UK), the abdomen opened along the midline, and exsanguination was performed using cardiac puncture. EDTA-blood was collected and immediately chilled on ice. The samples were centrifuged and plasma was stored at −80° C. prior to analysis. Different tissues were collected, weighed and were immediately snap-frozen in liquid nitrogen and stored at −80° C. until further analysis.

A short description of assay [2]: Body and adipose tissue weights in rats fed supplemented high-fat diet. How it is done:
as §1, with “Eight weeks-old old male Wistar rats, Rattus norvegicus, weighing 400-450 g, were purchased from Taconic (Ejby, Denmark).” left out
as §2, §3

Assay [3] in a line: Plasma lipids and total fatty acids in rats fed supplemented high-fat diet. As to conditions: high-fat diet + supplement, 12 weeks. How it is done: as §1, with “Eight weeks-old old male Wistar rats, Rattus norvegicus, weighing 400-450 g, were purchased from Taconic (Ejby, Denmark).” left out
as §2, §3

The nature of assay [4]: Liver lipids in rats fed supplemented high-fat diet. As to conditions: high-fat diet + supplement, 12 weeks. How it is done: as §1, with “Eight weeks-old old male Wistar rats, Rattus norvegicus, weighing 400-450 g, were purchased from Taconic (Ejby, Denmark).” left out
The rats were kept in a 12 hours light/dark cycle at a constant temperature (22±2° C.) and a relative humidity of 55% (±5%). Upon start of the experiment, the rats were block randomized to their respective interventions. All rats were divided into seven groups. The first group of animals (control group) was fed a high-fat diet (HF) with 25% by weight fat, consisting of 23% by weight lard and 2% by weight soybean oil, referred to as “HF”. The second group was fed a high-fat diet (HF) supplemented with tetradecylthioacetic acid (TTA) (250 mg/day/kg body weight), referred to as “HF+TTA”. […]
All animals were weighed daily and feed intake was determined weekly. […]

The mark [5] stands for this setting: high-fat diet + supplement, 12 weeks.

With `O=C([O-])c1ccc[n+]([C@@H]2O[C@H](CO)[C@@H](O)[C@H]2O)c1` [HF + NAR, nicotinic acid riboside], in assay [1], the 2-Aminoadipic acid turned out to be 1.34 µM, the 3-Hydroxyanthranilic acid came to 7.8 µM, the Folic acid was found to be 0.70 µM and the Methylmalonic acid turned out to be 2.35 µM. For the same compound, in assay [1], the N1-Methylnicotinamide turned out to be 2414, the Nicotinamide is 4308, the Nicotinic acid was 11.95 µM and the Pyridoxal stood at 384.1. Besides, in assay [1], the “Pyridoxal 5′-phosphate” value is given as 598.3, the Serine was 325 µM, the Thiamine monophosphate stood at 350.0 and the Trigonelline stood at 0.084 µM.

As to nicotineamide riboside [HF + NR], in assay [2] (setting [5]), the “Brown adipose tissue weight” value is given as 0.308 g and the “White adipose tissue weight” value is on record as 34.52 g. Besides, the Body weight end in assay [2] (high-fat diet + supplement, end of 12 weeks) was determined as 555.60 g. In addition, the Body weight start in assay [2] (start of experiment (baseline)) is on record as 409.60 g. For the same compound, in assay [3], the HDL/LDL ratio was 2.117, the “Plasma lipids: Cholesterol” value stood at 2.000 mmol/L, the “Plasma lipids: High density lipoprotein” value was 0.938 mmol/L and the “Plasma lipids: Low density lipoprotein” value turned out to be 0.450 mmol/L. Further, in assay [3], the “Plasma lipids: Triglycerides” value was found to be 2.194 mmol/L and the “Total fatty acids, plasma” value turned out to be 3049 µg/mL. For the same compound, in assay [1], the 2-Aminoadipic acid turned out to be 1.33 µM, the 3-Hydroxyanthranilic acid came to 5.4 µM, the 3-Hydroxybutyrate is 287 µM and the Acetoacetate was 72.9 µM. In assay [1], the Glycine was determined as 221 µM, the Methylmalonic acid amounted to 3.37 µM, the N1-Methylnicotinamide came to 3616 and the Nicotinamide worked out at 5870. Moreover, in assay [1], the Nicotinic acid is 12.38 µM, the Pyridoxal was determined as 369.8, the “Pyridoxal 5′-phosphate” value is listed as 729.0 and the Quinolinic acid worked out at 533. In assay [4], the “Liver lipids: Cholesterol” value came to 39.84 µmol/g and the “Liver lipids: Triglycerides” value worked out at 75.22 µmol/g.
